Results taken from patent US10494380B2, “Nitrogen-containing tricyclic derivatives having HIV replication inhibitory activity” (priority 2015, dated 2019).
Where two headings read alike, the source gives them in different places.

Assays:
[1] = tested on: T125A mutant virus (HIV-1 NL-432 recombinant molecular clone, IN gene); assay: HIV replication inhibition assay against integrase 124/125 mutant virus (Test Example 2); format: cell-based
How it was run: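 MT-4 cells (2.5×10^4 per well) infected with 60 pfu of 293T-derived HIV-1 NL-432 clone carrying integrase 124/125 point mutations, in presence of compound, cultured 4 days at 37 °C. Viability by MTT formazan at 560/690 nm; EC50 = concentration inhibiting 50% of virus-induced cytotoxicity.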

[2] = tested on: HIV; format: cell-based; conditions: EC50 in the presence of human serum (25%) versus without human serum, MT-4 cells
Experimental: To confirm the influence of human serum on anti-HIV activity as necessary, human serum was added and determined EC50 in this condition. Human serum (100 μL/well) was dispensed into each anti-HIV active substance at a designated concentration dispensed 50 μL each in advance into a 96-well microtiter plate, and the plate was incubate at room temperature for 1 hour. To the serum-free plate, only culture medium (100 μL/well) was dispensed into 96-well microtiter plate. MT-4 cells (3×10^4 cells/well) was infected with 3 μL/well of HIV solution diluted to an appropriate concentration (600 pfu/50 μL) by the required number of wells and incubated at 37° C. for 1 hour. The infected cells were centrifuged at 1200 rpm for 5 minutes, the supernatant was discarded, and the infected cells were dispersed into culture medium for the required number of wells at 50 μL/well. Infected cell suspension was dispensed into a 96-well microtiter plate of which anti-HIV active substance and human serum prepared in advance. The cell mixture was mixed with a plate mixer and cultured in a CO2 incubator for 4 days. The EC50 in the presence of human serum was calculated in the same manner as in Test Example 1 and the ratio of EC50 in the presence of human serum and EC50 in the absence of human serum was calculated as the potency shift value. […]

[3] = Human immunodeficiency virus 1, MT4, read-out: EC50 against T125A mutant virus, T125A mutant virus (HIV-1 NL-432 IN gene), MT-4 cells, MTT
[4] = read-out: EC50 against T125A mutant virus, T125A mutant virus (HIV-1 NL-432 IN gene), MT-4 cells, MTT

`COCCOc1cnc(N2CCn3c(C)cc4c(-c5ccc(Cl)cc5)c([C@H](OC(C)(C)C)C(=O)O)c(C)c2c43)nc1` [Compound I-234] was tested, and the EC50 [1, 3] was 3.6 nM and the Potency shift value [2] was 19.

For `Cc1c([C@H](OC(C)(C)C)C(=O)O)c(-c2ccc(Cl)cc2)c2cc(C)n3c2c1N(c1ncc(-c2ccc(F)cc2)cn1)CC3` [Compound I-239], the EC50 [1, 3] was 22 nM and the Potency shift value [2] was 16.

In the case of `Cc1c([C@H](OC(C)(C)C)C(=O)O)c(-c2ccc(Cl)cc2)c2cc(C)n3c2c1N(c1nc2ccccc2s1)CC3` [Compound I-240], the EC50 [1, 3] is reported as 51 nM and the Potency shift value [2] is reported as 12.

`COc1cnc(N2c3c(C)c([C@H](OC(C)(C)C)C(=O)O)c(-c4ccc(C)cc4)c4cc(C)n(c34)C[C@H]2C)nc1` [Compound I-241] showed an EC50 [1, 3] of 2.2 nM and a Potency shift value [2] of 8.4.

With `Cc1c([C@H](OC(C)(C)C)C(=O)O)c(-c2ccc(Cl)cc2)c2cc(C)n3c2c1N(c1nc2ccccc2n1C)CC3` [Compound I-242] the EC50 [1, 3] was 6.4 nM and the Potency shift value [2] was 11.

Molecule `Cc1ccc(-c2c([C@H](OC(C)(C)C)C(=O)O)c(Cl)c3c4c2cc(C)n4CCN3)cc1` [Compound I-247] has an EC50 [1, 3] of 8.3 nM and a Potency shift value [2] of 7.6.

With `Cc1cc(F)c(-c2c([C@H](OC(C)(C)C)C(=O)O)c(C)c3c4c2cc(C)n4CCN3CCN(C)C)c(F)c1` [Compound I-248] the EC50 [1, 3] was 67 nM and the Potency shift value [2] was 1.5.

`Cc1ccc(-c2c([C@H](OC(C)(C)C)C(=O)O)c(C)c3c4c2cc(C)n4CCN3c2ncc(C(=O)N(C)C)cn2)cc1` [Compound I-250] was tested, and the EC50 [1, 3] was 9.9 nM and the Potency shift value [2] was 19.

Molecule `Cc1ccc(-c2c([C@H](OC(C)(C)C)C(=O)O)c(C)c3c4c2cc(C)n4CCN3c2nc3ccccc3n2C)cc1` [Compound I-251] has an EC50 [1, 3] of 4.2 nM and a Potency shift value [2] of 9.6.

`Cc1c([C@H](OC(C)(C)C)C(=O)O)c(-c2ccc(Cl)cc2)c2cc(C)n3c2c1N(c1ncc(N2CCCC2)cn1)CC3` [Compound I-252] showed an EC50 [1, 3] of 8.5 nM and a Potency shift value [2] of 23.

With `Cc1c([C@H](OC(C)(C)C)C(=O)O)c(-c2ccc(Cl)cc2)c2cc(C)n3c2c1N(c1ncc(OCCCO)cn1)CC3` [Compound I-256] the EC50 [1, 3] was 5.6 nM and the Potency shift value [2] was 10.

In the case of `Cc1c([C@H](OC(C)(C)C)C(=O)O)c(-c2ccc(Cl)cc2)c2cc(C)n3c2c1N(c1ncc(OCC2(F)COC2)cn1)CC3` [Compound I-259], the EC50 [1, 3] is reported as 4.4 nM and the Potency shift value [2] is reported as 15.

In the case of `Cc1ccc(-c2c([C@H](OC(C)(C)C)C(=O)O)c(C)c3c4c2cc(C)n4CCN3c2cnc(C)cn2)cc1` [Compound I-264], the EC50 [1, 3] is reported as 4.4 nM and the Potency shift value [2] is reported as 26.

With `Cc1ccc(-c2c([C@H](OC(C)(C)C)C(=O)O)c(C)c3c4c2cc(C)n4CCN3c2cccc(C(=O)N(C)C)n2)cc1` [Compound I-269] the EC50 [1, 3] was 29 nM and the Potency shift value [2] was 7.4.

With `COc1cncc(N2CCn3c(C)cc4c(-c5ccc(C)cc5)c([C@H](OC(C)(C)C)C(=O)O)c(C)c2c43)n1` [Compound I-274] the EC50 [1, 3] was 14 nM and the Potency shift value [2] was 16.

`COc1cnc(N2CCn3c(C)cc4c(-c5ccc(C)cc5)c([C@H](OC(C)(C)C)C(=O)O)c(C)c2c43)cn1` [Compound I-275] showed an EC50 [1, 3] of 13 nM and a Potency shift value [2] of 18.

For `Cc1ccc(-c2c([C@H](OC(C)(C)C)C(=O)O)c(C)c3c4c2cc(C)n4CCN3c2ncc(OC3COC3)cn2)cc1` [Compound I-280], the EC50 [1, 3] was 5.3 nM and the Potency shift value [2] was 21.

Work on `Cc1ccc(-c2c([C@H](OC(C)(C)C)C(=O)O)c(C)c3c4c2cc(C)n4CCN3CC(F)F)cc1` [Compound I-281] yielded an EC50 [1, 3] of 17 nM and a Potency shift value [2] of 23.

Molecule `Cc1ccc(-c2c([C@H](OC(C)(C)C)C(=O)O)c(C)c3c4c2cc(C)n4CCN3c2ncc(OCCO)cn2)cc1` [Compound I-283] has an EC50 [1, 3] of 12 nM and a Potency shift value [2] of 9.5.

With `Cc1ccc(-c2c([C@H](OC(C)(C)C)C(=O)O)c(C)c3c4c2cc(C)n4CCN3c2ncc(OCCCO)cn2)cc1` [Compound I-284] the EC50 [1, 3] was 3.6 nM and the Potency shift value [2] was 17.

`Cc1ccc(-c2c([C@H](OC(C)(C)C)C(=O)O)c(C)c3c4c2cc(C)n4CCN3c2cccc(F)n2)cc1` [Compound I-286] was tested, and the EC50 [1, 3] was 15 nM and the Potency shift value [2] was 14.

Work on `Cc1ccc(-c2c([C@H](OC(C)(C)C)C(=O)O)c(C)c3c4c2cc(C)n4CCN3c2ccc(N3CCCC3=O)cn2)cc1` [Compound I-288] yielded an EC50 [1, 3] of 5.3 nM and a Potency shift value [2] of 11.

In the case of `Cc1ccc(-c2c([C@H](OC(C)(C)C)C(=O)O)c(C)c3c4c2cc(C)n4CCN3c2ccc3ncccc3n2)cc1` [Compound I-289], the EC50 [1, 3] is reported as 35 nM and the Potency shift value [2] is reported as 15.

For `CC(=O)NCCOc1cnc(N2CCn3c(C)cc4c(-c5ccc(C)cc5)c([C@H](OC(C)(C)C)C(=O)O)c(C)c2c43)nc1` [Compound I-295], the EC50 [1, 3] was 62 nM and the Potency shift value [2] was 5.3.

Work on `C=Cc1cnc(N2CCn3c(C)cc4c(-c5ccc(Cl)cc5)c([C@H](OC(C)(C)C)C(=O)O)c(C)c2c43)nc1` [Compound I-299] yielded an EC50 [1, 3] of 5.1 nM and a Potency shift value [2] of 20.

Work on `Cc1c(-c2c([C@H](OC(C)(C)C)C(=O)O)c(C)c3c4c2cc(C)n4CCN3CCN(C)C)cc(F)c2c1CCCO2` [Compound I-310] yielded an EC50 [1, 3] of 68 nM and a Potency shift value [2] of 1.2.

For `Cc1c([C@H](OC(C)(C)C)C(=O)O)c(-c2ccc(Cl)cc2)c2cc(C)n3c2c1N(c1ncc(C2CCOCC2)cn1)CC3` [Compound I-311], the EC50 [1, 3] was 3.1 nM and the Potency shift value [2] was 15.

In the case of `COCc1cnc(N2CCn3c(C)cc4c(-c5ccc(Cl)cc5)c([C@H](OC(C)(C)C)C(=O)O)c(C)c2c43)nc1` [Compound I-312], the EC50 [1, 3] is reported as 4.6 nM and the Potency shift value [2] is reported as 37.

`Cc1c([C@H](OC(C)(C)C)C(=O)O)c(-c2ccc(Cl)cc2)c2cc(C)n3c2c1N(c1ncc(CN(C)C)cn1)CC3` [Compound I-313] showed an EC50 [1, 3] of 8.8 nM and a Potency shift value [2] of 7.7.

Work on `CCOCc1cnc(N2CCn3c(C)cc4c(-c5ccc(Cl)cc5)c([C@H](OC(C)(C)C)C(=O)O)c(C)c2c43)nc1` [Compound I-314] yielded an EC50 [1, 3] of 5.3 nM and a Potency shift value [2] of 41.

For `Cc1c([C@H](OC(C)(C)C)C(=O)O)c(-c2ccc(Cl)cc2)c2cc(C)n3c2c1N(c1ncc(COCCN(C)C)cn1)CC3` [Compound I-315], the EC50 [1, 3] was 80 nM and the Potency shift value [2] was 3.9.

`Cc1ccc(-c2c([C@H](OC(C)(C)C)C(=O)O)c(C)c3c4c2cc(C)n4CCN3c2ncc(N3C[C@@H](C)O[C@@H](C)C3)cn2)cc1` [Compound I-316] showed an EC50 [1, 3] of 6.6 nM and a Potency shift value [2] of 17.

Molecule `Cc1c([C@H](OC(C)(C)C)C(=O)O)c(-c2cc3ccccc3s2)c2cc(C)n3c2c1N(CCN(C)C)CC3` [Compound I-319] has an EC50 [1, 3] of 87 nM and a Potency shift value [2] of 3.4.

`Cc1c([C@H](OC(C)(C)C)C(=O)O)c(C2=CCC(C)(C)CC2)c2cc(C)n3c2c1N(CCN(C)C)CC3` [Compound I-320] showed an EC50 [1, 3] of 16 nM and a Potency shift value [2] of 2.6.

`COc1cnc(N2c3c(C)c([C@H](OC(C)(C)C)C(=O)O)c(-c4ccc(Cl)cc4)c4cc(C)n(c34)C3CN(C(=O)c4ccccc4)CC32)nc1` (stereo partly shown) [Compound I-322] showed an EC50 [1, 3] of 44 nM and a Potency shift value [2] of 15.

`COc1ccc(N2CCn3c(C)cc4c(-c5ccc(C)cc5)c([C@H](OC(C)(C)C)C(=O)O)c(C)c2c43)nn1` [Compound I-328] gave an EC50 [1, 3] of 51 nM and a Potency shift value [2] of 4.2.

`Cc1ccc(-c2c([C@H](OC(C)(C)C)C(=O)O)c(C)c3c4c2cc(C)n4CCN3c2nc(C)ns2)cc1` [Compound I-329] showed an EC50 [1, 3] of 19 nM and a Potency shift value [2] of 15.

Molecule `Cc1ccc(-c2c([C@H](OC(C)(C)C)C(=O)O)c(C)c3c4c2cc(C)n4CCN3c2ncc(Oc3ncccn3)cn2)cc1` [Compound I-330] has an EC50 [1, 3] of 7.7 nM and a Potency shift value [2] of 39.

With `Cc1c([C@H](OC(C)(C)C)C(=O)O)c(-c2ccc(Cl)cc2)c2cc(C)n3c2c1N(C)CC3c1ccccc1` (stereo partly shown) [Compound I-331] the EC50 [1, 4] was 92 nM and the Potency shift value [2] was 7.

For `Cc1c([C@H](OC(C)(C)C)C(=O)O)c(-c2ccc(Cl)cc2)c2cc(C)n3c2c1N(C)CC3c1ccccc1` (stereo partly shown) [Compound I-332], the EC50 [1, 4] was 13 nM and the Potency shift value [2] was 25.

In the case of `Cc1ccc(-c2c([C@H](OC(C)(C)C)C(=O)O)c(C)c3c4c2cc(C)n4CCN3c2ncc(CCO)cn2)cc1` [Compound I-335], the EC50 [1, 3] is reported as 14 nM and the Potency shift value [2] is reported as 36.

For `Cc1ccc(-c2c([C@H](OC(C)(C)C)C(=O)O)c(C)c3c4c2cc(C)n4CCN3c2ncc(CCN(C)C)cn2)cc1` [Compound I-337], the EC50 [1, 3] was 28 nM and the Potency shift value [2] was 3.6.

Molecule `Cc1ccc(-c2c([C@H](OC(C)(C)C)C(=O)O)c(C)c3c4c2cc(C)n4CCN3c2ncc(Oc3ccc4ccccc4n3)cn2)cc1` [Compound I-338] has an EC50 [1, 3] of 21 nM and a Potency shift value [2] of 18.

Work on `Cc1ccc(-c2c([C@H](OC(C)(C)C)C(=O)O)c(C)c3c4c2cc(C)n4CCN3c2ncc(Oc3ccnc4ccccc34)cn2)cc1` [Compound I-340] yielded an EC50 [1, 3] of 15 nM and a Potency shift value [2] of 18.
